Test results: patent US7259276B2, “Polyenecarboxylic acid derivatives, processes for preparing them, and their use” (Sanofi-Aventis Deutschland GmbH, priority 2002, dated 2007)

Experiments:
[1] = target: glycosyltransferase (PBP 1b) (Escherichia coli, UniProt P02919); assay: glycosyltransferase assay: displacement of 3H-moenomycin from the glycosyltransferase (PBP 1b)/3H-moenomycin complex; type: binding; conditions: displacement of 3H-moenomycin from PBP 1b; read-out: inhibitory constants (IC50 values) in the glycosyltransferase assay
Chain of glycosyltransferase (PBP 1b) (P02919 whole entry): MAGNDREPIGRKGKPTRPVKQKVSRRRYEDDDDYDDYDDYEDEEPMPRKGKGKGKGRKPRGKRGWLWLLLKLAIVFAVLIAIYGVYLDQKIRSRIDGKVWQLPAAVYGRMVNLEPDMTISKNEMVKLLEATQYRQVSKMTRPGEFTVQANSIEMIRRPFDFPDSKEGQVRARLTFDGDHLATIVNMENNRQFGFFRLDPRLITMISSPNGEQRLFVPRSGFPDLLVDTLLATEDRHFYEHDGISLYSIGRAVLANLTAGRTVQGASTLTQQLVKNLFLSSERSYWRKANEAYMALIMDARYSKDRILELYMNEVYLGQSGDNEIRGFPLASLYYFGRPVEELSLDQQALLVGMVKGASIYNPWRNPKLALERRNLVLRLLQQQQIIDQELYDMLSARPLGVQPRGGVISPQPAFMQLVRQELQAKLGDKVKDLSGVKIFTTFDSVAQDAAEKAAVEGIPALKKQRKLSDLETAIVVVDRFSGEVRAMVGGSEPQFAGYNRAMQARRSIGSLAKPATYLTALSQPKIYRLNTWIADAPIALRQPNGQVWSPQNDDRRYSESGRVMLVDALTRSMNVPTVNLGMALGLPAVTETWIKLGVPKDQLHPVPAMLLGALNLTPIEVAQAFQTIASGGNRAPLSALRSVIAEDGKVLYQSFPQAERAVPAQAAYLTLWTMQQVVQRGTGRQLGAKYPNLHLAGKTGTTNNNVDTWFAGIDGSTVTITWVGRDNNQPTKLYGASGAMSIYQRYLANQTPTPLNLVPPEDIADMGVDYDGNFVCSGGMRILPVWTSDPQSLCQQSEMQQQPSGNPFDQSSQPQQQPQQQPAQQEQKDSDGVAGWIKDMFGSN
Source text: Table 1 summarizes, by way of example, the inhibitory concentrations (IC50) of some compounds of the invention. A special test system was used for finding glycosyltransferase inhibitors that are specific and very effective. This system uses a glycosyltransferase/^3H-moenomycin complex, which is brought into contact with substances that are to be tested. The determination of the GT-inhibitory effect is based on the displacement of radioactively labeled moenomycin A from the glycosyltransferase (PBP 1b)/^3H-moenomycin complex, it being possible to separate the released ^3H-moenomycin, as a soluble compound, from the fixed complex and to measure the remaining radioactivity using a Geiger counter.
The assay was carried out as described by Vollmer & Höltje (Antimicrobial Agents and Chemotherapy 2000, 44, 1181-1185), except that purified penicillin-binding protein 1b (PBP 1b; 5 pM), carrying ^3H-labeled moenomycin at the glycosyltransferase site, was used in the present example instead of [3H]benzylpenicillin. ^3H-Moenomycin was obtained from moenomycin A (Kurz et al., Eur. J. Biochem., 1998, 252, 500-507) by hydrogenating it with ^3H2:
6 mg of moenomycin, dissolved in 300 μL methanol, were added to a 1 cm^3 flask, after which 2 mg of palladium-charcoal (Degussa Type E10N/D) were added. The flask was then gassed, while excluding air, with 1 cm^3 3H2; and the reaction solution was left to hydrogenate for 15 minutes. After the reaction had come to an end, the catalyst was filtered off from the reaction mixture, which was diluted to 100 mL with ethanol. This solution can be used directly for preparing the glycosyltransferase/^3H-moenomycin complex. Total radioactivity of the reaction product: 6.56 GBq (177 mCi); specific activity: 1.9 TBq/mmol. The radioactive complex was attached to SPA PVT Copper His-Tag beads. The radioactive moenomycin that was displaced by the inhibitors was measured. • SPA PVT Copper His-Tag beads: Amersham RPN 0095; • PBS: GIBCO BRL 14200-067; • BSA: Calbiochem 12657; • NOG: SIGMA O-8001 (n-octyl β-D-glucopyranoside); • Tween 20: Acros 23336-067; • Microtiter plates: Greiner Labortechnik.
The determination was carried out in microtiter plates. 10 μL of the test solution were added to the microtiter plates, followed by 10 μL of ^3H-moenomycin (25 nM, 3.1 kBq/well) and 40 μL of SPA beads loaded with PBP 1b (100 μg of beads, 45 nM enzyme). The plates were sealed and left to stand at room temperature for 8 hours. After that, the beads were separated off from the test solution by centrifuging for 3 minutes at 1300 rpm. The distribution of the radioactivity was measured in a WALLAC MicroBeta® 1450 Counter.
The inhibitory values were calculated in accordance with the formula: [1−(cpmsample−cpmlow ctr)/(cpmhigh ctr−cpmlow ctr)]×100(%).

[2] = solubility (description of the substance); type: physicochemical; conditions: for solubility in organic solvents: medium-polar and polar organic solvents
[3] = stability (description of the substance); type: physicochemical; conditions: for stability in solution depending on pH: neutral, mildly acidic, strongly acidic, strongly alkaline media
[4] = cited from earlier work
[5] = system: Bacillus subtilis; conditions: against Bacillus subtilis; cited from earlier work

Molecule | IC50 [1] [µM] | solubility in organic solvents [2] | solubility in water [2] | sensitivity to light and air [3] | stability in solution depending on pH [3] | absorption from the gastrointestinal tract [4] | antibiotic effect [5]
O=C(O)/C=C/C=C\C=C\C=C/c1ccccc1/C=C/C=C/C(=O)O [serpentemycin A] | 0.2 | soluble in medium-polar and polar organic solvents | not particularly soluble in water | sensitive to light and air | stable in neutral and mildly acidic media but unstable in strongly acidic and strongly alkaline solution | – | –
moenomycin | – | – | – | – | – | not absorbed from the gastrointestinal tract | –
CC(O)C(O)/C=C/C=C/C=C/c1ccccc1/C=C/C=C/C(=O)O (stereo not drawn) [serpentemycin D] | 19 | soluble in medium-polar and polar organic solvents | not particularly soluble in water | sensitive to light and air | stable in neutral and mildly acidic media but unstable in strongly acidic and strongly alkaline solution | – | –
O=C(O)/C=C/C=C/C=C\c1ccccc1/C=C/C=C/C(=O)O [serpentemycin B] | 0.1 | soluble in medium-polar and polar organic solvents | not particularly soluble in water | sensitive to light and air | stable in neutral and mildly acidic media, but unstable in strongly acidic and strongly alkaline solution | – | –
C/C=C/C=C\C=C\C=C/c1ccccc1/C=C/C=C/C(=O)O [serpentene, reference compound] | 18 | – | – | – | – | – | weak antibiotic effect
